We go through four molecules from ChEMBL document CHEMBL1240439, “Synthesis and docking studies of novel benzopyran-2-ones with anticancer activity” (2010).

Format in all cases: functional
One assay deals with SF-295. Nature of the assay: Cytotoxicity against human SF295 cells assessed as cell growth at 10 uM after 48 hrs by sulforhodamine B assay. To be noted: SF-295, 48 h, read-out: Activity.
Another assay relates to RPMI-8226. Briefly: Cytotoxicity against human RPMI8226 cells assessed as cell growth at 10 uM after 48 hrs by sulforhodamine B assay. Particulars: RPMI-8226, 48 h, read-out: Activity.
Another assay deals with MOLT-4. Nature of the assay: Cytotoxicity against human MOLT4 cells assessed as cell growth at 10 uM after 48 hrs by sulforhodamine B assay. To be noted: MOLT-4, 48 h, read-out: Activity.
The next assay has as its system K562. Nature of the assay: Cytotoxicity against human K562 cells assessed as cell growth at 10 uM after 48 hrs by sulforhodamine B assay. Particulars: K562, 48 h, read-out: Activity.
In another assay the test system is NCI-H522. Nature of the assay: Cytotoxicity against human NCI-H522 cells assessed as cell growth at 10 uM after 48 hrs by sulforhodamine B assay. To be noted: NCI-H522, 48 h, read-out: Activity.
For another assay, the system named is HT-29. Briefly: Cytotoxicity against human HT-29 cells assessed as cell growth at 10 uM after 48 hrs by sulforhodamine B assay. To be noted: HT-29, 48 h, read-out: Activity.
A further assay deals with PC-3. Briefly: Cytotoxicity against human PC3 cells assessed as cell growth at 10 uM after 48 hrs by sulforhodamine B assay. Particulars: PC-3, 48 h, read-out: Activity.
Another assay has as its system UACC-62. Nature of the assay: Cytotoxicity against human UACC62 cells assessed as cell growth at 10 uM after 48 hrs by sulforhodamine B assay. To be noted: UACC-62, 48 h, read-out: Activity.
The next assay deals with HL-60(TB). Briefly: Cytotoxicity against human HL-60(TB) cells assessed as cell growth at 10 uM after 48 hrs by sulforhodamine B assay. Particulars: HL-60, 48 h, read-out: Activity.
A further assay relates to SR. Nature of the assay: Cytotoxicity against human SR cells assessed as cell growth at 10 uM after 48 hrs by sulforhodamine B assay. To be noted: read-out: Activity.
The next assay concerns EKVX. Briefly: Cytotoxicity against human EKVX cells assessed as cell growth at 10 uM after 48 hrs by sulforhodamine B assay. To be noted: read-out: Activity.
The test system of another assay is SK-MEL-2. Briefly: Cytotoxicity against human SK-MEL-2 cells assessed as cell growth at 10 uM after 48 hrs by sulforhodamine B assay. Particulars: SK-MEL-2, 48 h, read-out: Activity.
In a further assay the test system is OVCAR-4. Briefly: Cytotoxicity against human OVCAR4 cells assessed as cell growth at 10 uM after 48 hrs by sulforhodamine B assay. To be noted: OVCAR-4, 48 h, read-out: Activity.
Another assay concerns T47D. Nature of the assay: Cytotoxicity against human T47D cells assessed as cell growth at 10 uM after 48 hrs by sulforhodamine B assay. To be noted: read-out: Activity.

For `Cc1c(OCc2nnc(S)n2Cc2ccccc2)ccc2c(-c3ccccc3)cc(=O)oc12`, the growth at 10 µM worked out at 45.8% in the assay on SF-295; 31.5% in the assay with RPMI-8226; 49% in the assay on MOLT-4; 53.6% in the assay on K562; 56.6% in the assay with NCI-H522; 57.1% in the assay with HT-29. The growth at 10 µM came out at 56.6% with PC-3 and 59.9% in the assay with UACC-62.
On to `CCCc1cc(=O)oc2cc(OCc3nnc(S)n3Cc3ccccc3)ccc12`, for which the growth at 10 µM in the assay with SF-295 was determined as 53%; in the assay with RPMI-8226, 37.3%; in the assay with MOLT-4, 58.7%; with K562, 46.9%; with UACC-62, 59.7%; in the assay on HL-60(TB), 59.7%. The growth at 10 µM with SR came to 57.6%; in the assay on EKVX it was 57.7%; with SK-MEL-2, 53.4%; with OVCAR-4, 48.7%; in the assay on T47D, 50.7%.
In the case of `CCCc1cc(=O)oc2c(C)c(OCc3nnc(SC)o3)ccc12`, the growth at 10 µM in the assay with SF-295 is 21.9%.
As for `Cc1c(OCc2nnc(-c3ccccc3)o2)ccc2c(-c3ccccc3)cc(=O)oc12`, the growth at 10 µM in the assay on RPMI-8226 stood at 47.5%.
